Source: publication PMC11855086, “Synthesis, Antimicrobial Activity, and Tyrosinase Inhibition by Multifunctional 3,4-Dihydroxy-Phenyl Peptidomimetics” (International Journal of Molecular Sciences, 2025)
≈ marks a conversion by molar mass, not a printed value.

How the values were obtained:
S. aureus (ATCC 23235) = assay: microbe, parasite or virus in culture; format: cell-based; conditions: Staphylococcus aureus; for MBC: ATCC23235; for MIC: ATCC23235, 24 h
E. cloacae (ATCC 49141) = assay: MIC and MBC, microtiter plate technique; format: cell-based; conditions: ATCC49141, Enterobacter cloacae; for MIC: 24 h, resazurin; for MBC: TTC
E. coli K12 (ATCC 25404) = assay: MIC and MBC, microtiter plate technique; format: cell-based; conditions: Escherichia coli; for MBC: ATCC25404; for MIC: ATCC25404, 24 h
E. coli R4 (ATCC 39543) = assay: MIC and MBC, microtiter plate technique; format: cell-based; conditions: Escherichia coli; for MBC: ATCC39543; for MIC: ATCC39543, 24 h
[1] = test system: P. aeruginosa (ATCC 15442); assay: MIC and MBC, microtiter plate technique; format: cell-based; conditions: ATCC15442, Pseudomonas aeruginosa; for MIC: 24 h, resazurin; for MBC: TTC
E. coli R2 (ATCC 39544) = assay: MIC and MBC, microtiter plate technique; format: cell-based; conditions: Escherichia coli; for MBC: ATCC39544; for MIC: ATCC39544, 24 h
[2] = target: T1, mushroom tyrosinase (mTYR) (Agaricus bisporus, UniProt C7FF04); assay: Tyrosinase assay with L-DOPA as substrate (absorbance at 475 nm); format: biochemical; conditions: 100 µM compound
T1 construct: purchased Sigma-Aldrich (Poznan, Poland); host or cells: Agaricus bisporus (extracted natural enzyme)
T1 sequence (C7FF04 1-392 limits assumed): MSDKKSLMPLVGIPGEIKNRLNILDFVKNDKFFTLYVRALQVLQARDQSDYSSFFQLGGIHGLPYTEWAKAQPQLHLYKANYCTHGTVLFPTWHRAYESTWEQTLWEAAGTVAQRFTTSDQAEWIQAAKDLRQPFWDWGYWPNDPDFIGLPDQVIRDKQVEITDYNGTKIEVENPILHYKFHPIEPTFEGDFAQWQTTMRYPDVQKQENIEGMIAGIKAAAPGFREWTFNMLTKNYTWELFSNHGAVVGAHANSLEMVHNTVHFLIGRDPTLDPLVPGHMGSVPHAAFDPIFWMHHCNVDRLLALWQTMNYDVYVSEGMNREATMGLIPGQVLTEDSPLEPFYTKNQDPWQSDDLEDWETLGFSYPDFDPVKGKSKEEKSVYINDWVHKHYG
Source text: Tyrosinase (Tyr) extracted from Agaricus bisporus (mushroom tyrosinase, mTYR) is commonly used as a model enzyme for human Tyr due to its high purity, stability, and commercial availability. It is frequently used in the selection of TYR inhibitors. Following established literature protocols, L-tyrosine and L-DOPA, which serve as substrates for monophenol and diphenol oxidation, respectively, were used to assess the tyrosinase inhibitory activity of synthesized target compounds [21].
Tyrosinase (Tyr) activity was measured using L-DOPA as substrate and phosphate buffer solution (PBS) as blank control, following the method described by Min He et al. (2022) with an ultraviolet spectrophotometer (Carry-300, Agilent Life Sciences and Chemical Analysis, Santa Clara, CA, USA). […] Before the experiment, 2.9 mL of PBS and 0.1 mL of DMSO were used to account for the influence of the background solvent. The inhibitor solution (100 µL), substrate solution (2.8 mL), and Tyr solution (100 µL) were then added to a quartz colorimetric cuvette. After a one-minute mixing period, the absorption spectra of the mixture were continuously recorded at 475 nm using the UV spectrophotometer (Carry-300) for 5 min over a period of every 30 s. The tyrosinase inhibition rate was calculated as follows:Relative enzyme activity (%) = (A1 − A2)/A1 × 100
A1 = Absorbance of L-DOPA and inhibitor.
A2 = Absorbance of L-DOPA, inhibitor, and tyrosinase.

E. coli R3 (ATCC 11775) = assay: MIC and MBC, microtiter plate technique; format: cell-based; conditions: Escherichia coli; for MIC: ATCC11775, 24 h, resazurin; for MBC: ATCC11775, TTC
[3] = test system: A. baumannii (ATCC 17978); assay: MIC and MBC, microtiter plate technique; format: cell-based; conditions: ATCC17978, Acinetobacter baumannii; for MIC: 24 h, resazurin; for MBC: TTC

Compound	MBC (S. aureus (ATCC 23235))	MIC (S. aureus (ATCC 23235))	MIC (E. cloacae (ATCC 49141))	MBC (E. cloacae (ATCC 49141))	MBC (E. coli K12 (ATCC 25404))	MIC (E. coli K12 (ATCC 25404))	MBC (E. coli R4 (ATCC 39543))	MIC (E. coli R4 (ATCC 39543))	MIC [1]	MBC [1]	MBC (E. coli R2 (ATCC 39544))	MIC (E. coli R2 (ATCC 39544))	inhibition at 100 µM [2]	MIC (E. coli R3 (ATCC 11775))	MBC (E. coli R3 (ATCC 11775))	MIC [3]	MBC [3]
CCCCN(C(=O)Cc1ccccc1)C(C(=O)NCc1ccc(OC)cc1)c1ccc(O)c(O)c1 (stereo not drawn) [Compound 5h]	0.67 µM (≈ 0.319 µg/mL)	0.67 µM (≈ 0.319 µg/mL)	0.74 µM (≈ 0.353 µg/mL)	0.73 µM (≈ 0.348 µg/mL)	0.71 µM (≈ 0.338 µg/mL)	0.25 µM (≈ 0.119 µg/mL)	1.42 µM (≈ 0.677 µg/mL)	1.36 µM (≈ 0.648 µg/mL)	0.69 µM (≈ 0.329 µg/mL)	0.72 µM (≈ 0.343 µg/mL)	1.07 µM (≈ 0.51 µg/mL)	0.86 µM (≈ 0.41 µg/mL)	< 10%	1.07 µM (≈ 0.51 µg/mL)	1.19 µM (≈ 0.567 µg/mL)	0.73 µM (≈ 0.348 µg/mL)	0.75 µM (≈ 0.357 µg/mL)
CCCCN(C(=O)Cc1ccccc1)C(C(=O)NCc1ccccc1)c1ccc(O)c(O)c1 (stereo not drawn) [Compound 5g, N-benzyl-2-(N-butyl-2-phenylacetamido)-2-(3,4-dihydroxyphenyl)acetamide]	0.8 µM (≈ 0.357 µg/mL)	0.73 µM (≈ 0.326 µg/mL)	0.72 µM (≈ 0.322 µg/mL)	0.77 µM (≈ 0.344 µg/mL)	0.71 µM (≈ 0.317 µg/mL)	0.42 µM (≈ 0.188 µg/mL)	1.41 µM (≈ 0.63 µg/mL)	1.5 µM (≈ 0.67 µg/mL)	0.7 µM (≈ 0.313 µg/mL)	0.78 µM (≈ 0.348 µg/mL)	1.23 µM (≈ 0.549 µg/mL)	0.94 µM (≈ 0.42 µg/mL)	> 10%	1.02 µM (≈ 0.455 µg/mL)	1.23 µM (≈ 0.549 µg/mL)	0.79 µM (≈ 0.353 µg/mL)	0.82 µM (≈ 0.366 µg/mL)
COc1ccc(CNC(=O)C(c2ccc(O)c(O)c2)N(Cc2ccc(OC)cc2)C(=O)Cc2ccccc2)cc1 (stereo not drawn) [Compound 5b, 2-(3,4-dihydroxyphenyl)-N-(4-methoxybenzyl)-2-(N-(4-methoxybenzyl)-2-phenylacetamido)-acetamide]	0.96 µM (≈ 0.519 µg/mL)	0.9 µM (≈ 0.487 µg/mL)	1 µM (≈ 0.541 µg/mL)	1.05 µM (≈ 0.568 µg/mL)	0.61 µM (≈ 0.33 µg/mL)	0.45 µM (≈ 0.243 µg/mL)	2.21 µM (≈ 1.19 µg/mL)	2 µM (≈ 1.08 µg/mL)	0.96 µM (≈ 0.519 µg/mL)	0.99 µM (≈ 0.535 µg/mL)	1.03 µM (≈ 0.557 µg/mL)	0.98 µM (≈ 0.53 µg/mL)	> 10%	1.61 µM (≈ 0.87 µg/mL)	1.7 µM (≈ 0.919 µg/mL)	0.83 µM (≈ 0.449 µg/mL)	0.9 µM (≈ 0.487 µg/mL)
CCCCN(C(C)=O)C(C(=O)NCc1ccccc1)c1ccc(O)c(O)c1 (stereo not drawn) [Compound 5p, N-benzyl-2-(N-butylacetamido)-2-(3,4-dihydroxyphenyl)acetamide]	0.94 µM (≈ 0.348 µg/mL)	0.87 µM (≈ 0.322 µg/mL)	0.86 µM (≈ 0.319 µg/mL)	0.94 µM (≈ 0.348 µg/mL)	0.89 µM (≈ 0.33 µg/mL)	0.33 µM (≈ 0.122 µg/mL)	1.7 µM (≈ 0.63 µg/mL)	1.58 µM (≈ 0.585 µg/mL)	0.88 µM (≈ 0.326 µg/mL)	0.94 µM (≈ 0.348 µg/mL)	1.51 µM (≈ 0.559 µg/mL)	0.84 µM (≈ 0.311 µg/mL)	> 10%	1.27 µM (≈ 0.47 µg/mL)	1.64 µM (≈ 0.608 µg/mL)	0.87 µM (≈ 0.322 µg/mL)	0.9 µM (≈ 0.333 µg/mL)
O=C(NCc1ccc(F)cc1)C(c1ccc(O)c(O)c1)N(C(=O)Cc1ccccc1)C1CCCCC1 (stereo not drawn) [Compound 5f]	0.71 µM (≈ 0.348 µg/mL)	0.68 µM (≈ 0.334 µg/mL)	0.68 µM (≈ 0.334 µg/mL)	0.73 µM (≈ 0.358 µg/mL)	0.61 µM (≈ 0.299 µg/mL)	0.22 µM (≈ 0.108 µg/mL)	1.3 µM (≈ 0.638 µg/mL)	1.28 µM (≈ 0.628 µg/mL)	0.64 µM (≈ 0.314 µg/mL)	0.69 µM (≈ 0.338 µg/mL)	0.75 µM (≈ 0.368 µg/mL)	0.65 µM (≈ 0.319 µg/mL)	< 10%	0.83 µM (≈ 0.407 µg/mL)	1.18 µM (≈ 0.579 µg/mL)	0.68 µM (≈ 0.334 µg/mL)	0.71 µM (≈ 0.348 µg/mL)
CCCCN(C(=O)Cc1ccccc1)C(C(=O)NCc1ccc(F)cc1)c1ccc(O)c(O)c1 (stereo not drawn) [Compound 5i]	1.05 µM (≈ 0.488 µg/mL)	0.99 µM (≈ 0.46 µg/mL)	1.21 µM (≈ 0.562 µg/mL)	1.27 µM (≈ 0.59 µg/mL)	1.05 µM (≈ 0.488 µg/mL)	0.6 µM (≈ 0.279 µg/mL)	2.51 µM (≈ 1.17 µg/mL)	2.31 µM (≈ 1.07 µg/mL)	1.23 µM (≈ 0.571 µg/mL)	1.26 µM (≈ 0.585 µg/mL)	1.16 µM (≈ 0.539 µg/mL)	1.17 µM (≈ 0.544 µg/mL)	> 10%	1.92 µM (≈ 0.892 µg/mL)	2.13 µM (≈ 0.989 µg/mL)	0.99 µM (≈ 0.46 µg/mL)	1.05 µM (≈ 0.488 µg/mL)
